Experimental data from patent US8969629B2, “Cyclic compound, production process thereof, radiation-sensitive composition and resist pattern formation method” (Mitsubishi Gas Chemical Company, Inc., priority 2009, dated 2015).

Assay: Solubility test of compound in safe solvent
Format: physicochemical
Conditions: for dissolution amount in CHN: cyclohexanone (CHN); for dissolution amount in PGME: propylene glycol monomethyl ether (PGME)
Source text: A: 5.0 wt %≦dissolution amount
B: 3.0 wt %≦dissolution amount<5.0 wt %
C: dissolution amount<3.0 wt %

Structure (SMILES)	dissolution amount in CHN	dissolution amount in PGME
Oc1ccc(C2c3cc(c(OC4CCCCC4)cc3O)C(c3ccc(O)cc3)c3cc(c(O)cc3OC3CCCCC3)C(c3ccc(O)cc3)c3cc(c(OC4CCCCC4)cc3O)C(c3ccc(O)cc3)c3cc2c(O)cc3OC2CCCCC2)cc1 (centres unmarked) [CR-1A]	A (5.0 wt %≦dissolution amount)	A (5.0 wt %≦dissolution amount)
Oc1ccc(C2c3cc(c(OC4CCCCC4)cc3O)C(c3ccc(O)c(O)c3)c3cc(c(O)cc3OC3CCCCC3)C(c3ccc(O)c(O)c3)c3cc(c(OC4CCCCC4)cc3O)C(c3ccc(O)c(O)c3)c3cc2c(O)cc3OC2CCCCC2)cc1O (centres unmarked) [CR-2A]	A (5.0 wt %≦dissolution amount)	A (5.0 wt %≦dissolution amount)
COc1cc(O)c2cc1C(c1ccc(C)cc1C)c1cc(c(O)cc1OC)C(c1ccc(C)cc1C)c1cc(c(OC)cc1O)C(c1ccc(C)cc1C)c1cc(c(O)cc1OC)C2c1ccc(C)cc1C (centres unmarked) [CR-8A, reference compound]	C (dissolution amount<3.0 wt %)	C (dissolution amount<3.0 wt %)
Cc1cc(C2c3cc(c(OC4CCC(C)CC4)cc3O)C(c3ccc(O)c(O)c3)c3cc(c(O)cc3OC3CCC(C)CC3)C(c3ccc(O)c(O)c3)c3cc(c(OC4CCC(C)CC4)cc3O)C(c3ccc(O)c(O)c3)c3cc2c(O)cc3OC2CCC(C)CC2)ccc1O (centres unmarked) [CR-4A]	A (5.0 wt %≦dissolution amount)	A (5.0 wt %≦dissolution amount)
CCOc1cc(O)c2cc1C(c1ccc(OC)cc1)c1cc(c(O)cc1OCC)C(c1ccc(OC)cc1)c1cc(c(OCC)cc1O)C(c1ccc(OC)cc1)c1cc(c(O)cc1OCC)C2c1ccc(OC)cc1 (centres unmarked) [CR-9A, reference compound]	C (dissolution amount<3.0 wt %)	C (dissolution amount<3.0 wt %)
CC1CCC(Oc2cc(O)c3cc2C(c2ccc(O)cc2)c2cc(c(O)cc2OC2CCC(C)CC2)C(c2ccc(O)cc2)c2cc(c(OC4CCC(C)CC4)cc2O)C(c2ccc(O)cc2)c2cc(c(O)cc2OC2CCC(C)CC2)C3c2ccc(O)cc2)CC1 (centres unmarked) [CR-3A]	A (5.0 wt %≦dissolution amount)	A (5.0 wt %≦dissolution amount)
CC1CC(Oc2cc(O)c3cc2C(c2ccc(O)c(O)c2)c2cc(c(O)cc2OC2CC(C)CC(C)(C)C2)C(c2ccc(O)c(O)c2)c2cc(c(OC4CC(C)CC(C)(C)C4)cc2O)C(c2ccc(O)c(O)c2)c2cc(c(O)cc2OC2CC(C)CC(C)(C)C2)C3c2ccc(O)c(O)c2)CC(C)(C)C1 (centres unmarked) [CR-7A]	A (5.0 wt %≦dissolution amount)	A (5.0 wt %≦dissolution amount)
